Values of other authors in patent US20200206184A1, “PHARMACEUTICAL COMPOSITIONS FOR THE TREATMENT OF DISEASE AND/OR SYMPTOMS IN ARTHRITIS” (priority 2004, published 2020).

Legend:
[1] = test system: PBQ-induced writhing in mice; conditions: ranking among cannabinoids
[2] = test system: patient with Mediterranean fever; conditions: 50 mg of THC
[3] = test system: collagen induced arthritis model in mice

Row | Structure (SMILES) | Reducing analgesia and inflammation [1] | Amount of analgesia that the patient required [2] | TNF-α production (TNF-α) | Arthritis in collagen induced arthritis model [3] | Inhibition of PBQ-induced writhing ([1]; mice, oral administration) | Nitric oxide production (nitric oxide)
1 | CCCCCc1cc(O)c2c(c1)OC(C)(C)c1ccc(C)cc1-2 [CBN] | least effective | – | – | – | – | –
2 | CCCCCc1cc(O)c2c(c1)OC(C)(C)[C@@H]1CCC(C)=C[C@@H]21 [THC, delta-9-tetrahydrocannabinol] | least effective | highly significant reduction | – | – | – | –
3 | C=C(C)[C@@H]1CCC(C)=C[C@H]1c1c(O)cc(CCCCC)cc1O [CBD, cannabidiol] | – | – | inhibition | suppress arthritis in a dose dependant manner | most effective | inhibition
